Reference: patent US11780823B2, “Indazole-3-carboxamides and their use as Wnt/β-catenin signaling pathway inhibitors” (BioSplice Therapeutics, Inc., priority 2011, dated 2023)

Tested on: Wnt activity (wnt-responsive SP5 promoter luciferase reporter in SW480 cells)
Assay: Wnt reporter screening assay: SP5 promoter-driven firefly luciferase in SW480 cells
Type: cell-based
Details: Homo sapiens; SW480 colon cancer cells with SP5 promoter luciferase reporter; half-log dilutions, ten micromolar top concentration; read 24-40 h after compound addition; normalized to DMSO; read-out: Wnt inhibition
Description: Another screening assay for Wnt activity is described as follows. Reporter cell lines can be generated by stably transducing cells of cancer cell lines (e.g., colon cancer) with a lentiviral construct that include a wnt-responsive promoter driving expression of the firefly luciferase gene.
Lentiviral constructs can be made in which the SP5 promoter, a promoter having eight TCF/LEF binding sites derived from the SP5 promoter, is linked upstream of the firefly luciferase gene. The lentiviral constructs can also include a hygromycin resistance gene as a selectable marker. The SP5 promoter construct can be used to transduce SW480 cells, a colon cancer cell line having a mutated APC gene that generates a truncated APC protein, leading to de-regulated accumulation of β-catenin.
Cultured SW480 cells bearing a reporter construct can be distributed at approximately 10,000 cells per well into 96 well or 384 well plates. Compounds from a small molecule compound library can then be added to the wells in half-log dilutions using a ten micromolar top concentration. A series of control wells for each cell type receive only buffer and compound solvent. Twenty-four to forty hours after the addition of compound, reporter activity for luciferase can be assayed, for example, by addition of the BrightGlo luminescence reagent (Promega) and the Victor3 plate reader (Perkin Elmer). Readings can be normalized to DMSO only treated cells, and normalized activities can then be used in the IC50 calculations.

Row | Compound | IC50
1 | O=C(NC1CCCCC1)c1cncc(-c2ccc3[nH]nc(C(=O)Nc4cccnc4)c3c2)c1 [Compound 59, 5-(5-(Cyclohexylcarbamoyl)pyridin-3-yl)-N-(pyridin-3-yl)-1H-indazole-3-carboxamide] | 3100 nM
2 | O=C(NCc1cccnc1)c1n[nH]c2ccc(-c3cccnc3)cc12 [Compound 42, 5-(Pyridin-3-yl)-N-(pyridin-3-ylmethyl)-1H-indazole-3-carboxamide] | 500 nM
3 | O=C(Nc1ccccc1)c1n[nH]c2ccc(-c3cncc(CN4CCCCC4)c3)cc12 [Compound 82, N-Phenyl-5-(5-(piperidin-1-ylmethyl)pyridin-3-yl)-1H-indazole-3-carboxamide] | 143 to 188 nM
4 | CN(C)Cc1cncc(-c2ccc3[nH]nc(C(=O)Nc4cccnc4)c3c2)c1 [Compound 40, 5-(5-((Dimethylamino)methyl)pyridin-3-yl)-N-(pyridin-3-yl)-1H-indazole-3-carboxamide] | 65 nM
5 | O=C(Nc1ccc(C(F)(F)F)nc1)c1n[nH]c2ccc(-c3cncc(CN4CCCCC4)c3)cc12 [Compound 63, 5-(5-(Piperidin-1-ylmethyl)pyridin-3-yl)-N-(6-(trifluoromethyl)pyridin-3-yl)-1H-indazole-3-carboxamide] | 100 nM
6 | Nc1ncc(NC(=O)c2n[nH]c3ccc(-c4cncc(CN5CCCCC5)c4)cc23)cn1 [Compound 176, N-(2-Aminopyrimidin-5-yl)-5-(5-(piperidin-1-ylmethyl)pyridin-3-yl)-1H-indazole-3-carboxamide] | 30 nM
7 | O=C(NC1CCCC1)c1ccc(NC(=O)c2n[nH]c3ccc(-c4cccnc4)cc23)cn1 [Compound 181, N-(6-(Cyclopentylcarbamoyl)pyridin-3-yl)-5-(pyridin-3-yl)-1H-indazole-3-carboxamide] | 38 nM
8 | O=C(Nc1ccc(O)nc1)c1n[nH]c2ccc(-c3cncc(CN4CCCCC4)c3)cc12 [Compound 178, N-(6-Hydroxypyridin-3-yl)-5-(5-(piperidin-1-ylmethyl)pyridin-3-yl)-1H-indazole-3-carboxamide] | 297 nM
9 | O=C(Nc1cncc(Cc2ccccc2)c1)c1n[nH]c2ccc(-c3cncc(CN4CCCCC4)c3)cc12 [Compound 80, N-(5-Benzylpyridin-3-yl)-5-(5-(piperidin-1-ylmethyl)pyridin-3-yl)-1H-indazole-3-carboxamide] | 158 nM
10 | O=C(Nc1ccc(C(F)(F)F)nc1)c1n[nH]c2ccc(-c3cccnc3)cc12 [Compound 3, 5-(Pyridin-3-yl)-N-(6-(trifluoromethyl)pyridin-3-yl)-1H-indazole-3-carboxamide] | 200 nM
11 | O=C(Nc1cccc(F)c1)c1n[nH]c2ccc(-c3cncc(CN4CCCCC4)c3)cc12 [Compound 162, N-(3-Fluorophenyl)-5-(5-(piperidin-1-ylmethyl)pyridin-3-yl)-1H-indazole-3-carboxamide] | 426 nM
12 | CN1CCN(Cc2cc(F)cc(-c3ccc4[nH]nc(C(=O)Nc5cnccc5C(F)(F)F)c4c3)c2)CC1 [Compound 60, 5-(3-Fluoro-5-((4-methylpiperazin-1-yl)methyl)phenyl)-N-(4-(trifluoromethyl)pyridin-3-yl)-1H-indazole-3-carboxamide] | ≥ 10000 nM
13 | CN1CCN(c2ccc(NC(=O)c3n[nH]c4ccc(-c5cccnc5)cc34)cn2)CC1 [Compound 12, N-(6-(4-Methylpiperazin-1-yl)pyridin-3-yl)-5-(pyridin-3-yl)-1H-indazole-3-carboxamide] | 63 nM
14 | O=C(Nc1cccnc1)c1n[nH]c2ccc(-c3cc(F)cc(CN4CCCCC4)c3)cc12 [Compound 67, 5-(3-Fluoro-5-(piperidin-1-ylmethyl)phenyl)-N-(pyridin-3-yl)-1H-indazole-3-carboxamide] | ≥ 10000 nM
15 | O=C(Nc1cccnc1)c1n[nH]c2ccc(-c3cncc(NC(=O)N4CCOCC4)c3)cc12 [Compound 32, N-(5-(3-(Pyridin-3-ylcarbamoyl)-1H-indazol-5-yl)pyridin-3-yl) morpholine-4-carboxamide] | 1250 nM
16 | O=C(Nc1cncc(F)c1)c1n[nH]c2ccc(-c3cncc(CN4CCCCC4)c3)cc12 [Compound 168, N-(5-Fluoropyridin-3-yl)-5-(5-(piperidin-1-ylmethyl)pyridin-3-yl)-1H-indazole-3-carboxamide] | 66 nM
17 | CN(C)Cc1cncc(NC(=O)c2n[nH]c3ccc(-c4cccnc4)cc23)c1 [Compound 7, N-(5-((Dimethylamino)methyl)pyridin-3-yl)-5-(pyridin-3-yl)-1H-indazole-3-carboxamide] | 110 nM

Row | Compound | IC50
18 | CN(C)CCN(C)c1ccc(NC(=O)c2n[nH]c3ccc(-c4cncc(CN5CCCCC5)c4)cc23)cn1 [Compound 74, N-(6-((2-(Dimethylamino)ethyl)(methyl)amino)pyridin-3-yl)-5-(5-(piperidin-1-ylmethyl)pyridin-3-yl)-1H-indazole-3-carboxamide] | 65 nM
19 | O=C(NCc1cccnc1)c1n[nH]c2ccc(-c3cncc(CN4CCCCC4)c3)cc12 [Compound 76, 5-(5-(Piperidin-1-ylmethyl)pyridin-3-yl)-N-(pyridin-3-ylmethyl)-1H-indazole-3-carboxamide] | 850 nM
20 | O=C(Nc1ccnnc1)c1n[nH]c2ccc(-c3cncc(CN4CCCCC4)c3)cc12 [Compound 75, 5-(5-(Piperidin-1-ylmethyl)pyridin-3-yl)-N-(pyridazin-4-yl)-1H-indazole-3-carboxamide] | 40 nM
21 | O=C(Nc1cncc(F)c1)c1n[nH]c2ccc(-c3cccnc3)cc12 [Compound 23, N-(5-Fluoropyridin-3-yl)-5-(pyridin-3-yl)-1H-indazole-3-carboxamide] | 120 nM
22 | N#Cc1ccc(NC(=O)c2n[nH]c3ccc(-c4cncc(CN5CCCC5)c4)cc23)cn1 [Compound 52, N-(6-Cyanopyridin-3-yl)-5-(5-(pyrrolidin-1-ylmethyl)pyridin-3-yl)-1H-indazole-3-carboxamide] | 57 nM
23 | O=C(Nc1ccc(N2CCCC2)nc1)c1n[nH]c2ccc(-c3cccnc3)cc12 [Compound 53, 5-(Pyridin-3-yl)-N-(6-(pyrrolidin-1-yl)pyridin-3-yl)-1H-indazole-3-carboxamide] | 63 nM
24 | NC(=O)c1ccc(NC(=O)c2n[nH]c3ccc(-c4cncc(CN5CCCCC5)c4)cc23)cn1 [Compound 180, N-(6-carbamoylpyridin-3-yl)-5-(5-(piperidin-1-ylmethyl)pyridin-3-yl)-1H-indazole-3-carboxamide] | 13 nM
25 | Cc1cc(NC(=O)c2n[nH]c3ccc(-c4cncc(CN5CCCCC5)c4)cc23)cnc1N1CCC1 [Compound 173, N-(6-(Azetidin-1-yl)-5-methylpyridin-3-yl)-5-(5-(piperidin-1-ylmethyl)pyridin-3-yl)-1H-indazole-3-carboxamide] | 36 nM
26 | CN1CCN(c2ncccc2NC(=O)c2n[nH]c3ccc(-c4cccnc4)cc23)CC1 [Compound 11, N-(2-(4-Methylpiperazin-1-yl)pyridin-3-yl)-5-(pyridin-3-yl)-1H-indazole-3-carboxamide] | ≥ 10000 nM
27 | O=C(Nc1ccc2c(c1)OCO2)c1n[nH]c2ccc(-c3cncc(CN4CCCCC4)c3)cc12 [Compound 78, N-(Benzo[d][1,3]dioxol-5-yl)-5-(5-(piperidin-1-ylmethyl)pyridin-3-yl)-1H-indazole-3-carboxamide] | 239 nM
28 | CN(C)Cc1cncc(-c2ccc3[nH]nc(C(=O)Nc4ccc(N5CCCC5)nc4)c3c2)c1 [Compound 190, 5-(5-((Dimethylamino)methyl)pyridin-3-yl)-N-(6-(pyrrolidin-1-yl)pyridin-3-yl)-1H-indazole-3-carboxamide] | 1200 nM
29 | O=C(Nc1cccnc1)c1n[nH]c2ccc(-c3cncc(CN4CCC(F)(F)C4)c3)cc12 [Compound 188, 5-(5-((3,3-Difluoropyrrolidin-1-yl)methyl)pyridin-3-yl)-N-(pyridin-3-yl)-1H-indazole-3-carboxamide] | 9 nM
30 | O=C(Nc1ccc(N2CCC(O)CC2)nc1)c1n[nH]c2ccc(-c3cncc(CN4CCCCC4)c3)cc12 [Compound 169, N-(6-(4-Hydroxypiperidin-1-yl)pyridin-3-yl)-5-(5-(piperidin-1-ylmethyl)pyridin-3-yl)-1H-indazole-3-carboxamide] | 49 nM
31 | CN(C)Cc1cncc(-c2ccc3[nH]nc(C(=O)Nc4ccc(Oc5ccccc5F)nc4)c3c2)c1 [Compound 36, 5-(5-((Dimethylamino)methyl)pyridin-3-yl)-N-(6-(2-fluorophenoxy)pyridin-3-yl)-1H-indazole-3-carboxamide] | 275 nM
32 | CN(C)Cc1cncc(NC(=O)c2n[nH]c3ccc(-c4cncc(CN5CCCCC5)c4)cc23)c1 [Compound 86, N-(5-((Dimethylamino)methyl)pyridin-3-yl)-5-(5-(piperidin-1-ylmethyl)pyridin-3-yl)-1H-indazole-3-carboxamide] | 66 nM
33 | O=C(Nc1cccnc1)c1n[nH]c2ccc(-c3cncc(F)c3)cc12 [Compound 13, 5-(5-fluoropyridin-3-yl)-N-(pyridin-3-yl)-1H-indazole-3-carboxamide] | 1250 nM
34 | O=C(Nc1ccc(N2CCCC2)nc1)c1n[nH]c2ccc(-c3cncc(CN4CCC(O)CC4)c3)cc12 [Compound 170, 5-(5-((4-Hydroxypiperidin-1-yl)methyl)pyridin-3-yl)-N-(6-(pyrrolidin-1-yl)pyridin-3-yl)-1H-indazole-3-carboxamide] | 43 nM
